According to ChEMBL document CHEMBL1201862, “PubChem BioAssay data set” (2004):
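These data come from cells grown in 96-well plates and exposed to compound for 48 hours at five concentrations. At the GI50, growth is halved.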 Calls of active or inactive are those of the source. No stated cut-off is given here; in the data, active = GI50 up to about 1.1 µM and inactive = higher.

Key:
Experiment in all cases: NCI tumour cell line growth inhibition, 48 h
786-0 = system: 786-0
A549 = system: A549
ACHN = system: ACHN
CCRF-CEM = system: CCRF-CEM
COLO 205 = system: COLO 205
DLD-1 = system: DLD-1
DMS-114 = system: DMS-114
DMS-273 = system: DMS-273
EKVX = system: EKVX
HCC 2998 = system: HCC 2998
HCT-116 = system: HCT-116
HCT-15 = system: HCT-15
HL-60 = system: HL-60
HOP-62 = system: HOP-62
HT-29 = system: HT-29
IGROV-1 = system: IGROV-1
K562 = system: K562
KM-20L2 = system: KM-20L2
KM12 = system: KM12
LOX IMVI = system: LOX IMVI
LXFL 529 = system: LXFL 529
M14 = system: M14
M19-MEL = system: M19-MEL
MOLT-4 = system: MOLT-4
Malme-3M = system: Malme-3M
NCI-H226 = system: NCI-H226
NCI-H23 = system: NCI-H23
NCI-H460 = system: NCI-H460
NCI-H522 = system: NCI-H522
OVCAR-3 = system: OVCAR-3
OVCAR-8 = system: OVCAR-8
RPMI-8226 = system: RPMI-8226
RXF 393 = system: RXF 393
SF-268 = system: SF-268
SF-295 = system: SF-295
SF-539 = system: SF-539
SK-MEL-28 = system: SK-MEL-28
SN12C = system: SN12C
SNB-19 = system: SNB-19
SNB-78 = system: SNB-78
SR = system: SR
SW-620 = system: SW-620
TK-10 = system: TK-10
U-251 = system: U-251
UACC-257 = system: UACC-257
UO-31 = system: UO-31
A498 = system: A498
BT-549 = system: BT-549
CAKI-1 = system: CAKI-1
DU-145 = system: DU-145
HOP-18 = system: HOP-18
HOP-92 = system: HOP-92
Hs-578T = system: Hs-578T
MCF7 = system: MCF7
MDA-MB-231 = system: MDA-MB-231
MDA-MB-435 = system: MDA-MB-435
MDA-N = system: MDA-N
NCI/ADR-RES = system: NCI/ADR-RES
OVCAR-4 = system: OVCAR-4
OVCAR-5 = system: OVCAR-5
PC-3 = system: PC-3
SK-MEL-2 = system: SK-MEL-2
SK-MEL-5 = system: SK-MEL-5
SK-OV-3 = system: SK-OV-3
T47D = system: T47D
UACC-62 = system: UACC-62
SNB-75 = system: SNB-75

Measured: GI50

CN(C)c1ccc(-c2cc(O)c3ccccc3n2)cc1
> 100 µM: HCT-15
inactive: 786-0 > 100 µM | A549 > 100 µM | ACHN > 100 µM | CCRF-CEM > 100 µM | COLO 205 > 100 µM | DLD-1 > 100 µM | DMS-114 > 100 µM | DMS-273 > 100 µM | EKVX > 100 µM | HCC 2998 > 100 µM | HCT-116 > 100 µM | HL-60 > 100 µM | HOP-62 > 100 µM | HT-29 > 100 µM | IGROV-1 > 100 µM | K562 > 100 µM | KM-20L2 > 100 µM | KM12 > 100 µM | LOX IMVI > 100 µM | LXFL 529 > 100 µM | M14 > 100 µM | M19-MEL > 100 µM | MOLT-4 > 100 µM | Malme-3M > 100 µM | NCI-H226 > 100 µM | NCI-H23 > 100 µM | NCI-H460 > 100 µM | NCI-H522 > 100 µM | OVCAR-3 > 100 µM | OVCAR-8 > 100 µM | RPMI-8226 > 100 µM | RXF 393 > 100 µM | SF-268 > 100 µM | SF-295 > 100 µM | SF-539 > 100 µM | SK-MEL-28 > 100 µM | SN12C > 100 µM | SNB-19 > 100 µM | SNB-78 > 100 µM | SR > 100 µM | SW-620 > 100 µM | TK-10 > 100 µM | U-251 > 100 µM | UACC-257 > 100 µM | UO-31 > 100 µM

OCC1CCC(n2cnc3c(O)ncnc32)O1 (stereo not given)
> 100 µM: HCT-15
inactive: 786-0 > 1000 µM | A498 > 92 µM | A549 > 100 µM | ACHN > 1000 µM | BT-549 > 1000 µM | CAKI-1 > 100 µM | CCRF-CEM > 100 µM | COLO 205 > 100 µM | DLD-1 > 100 µM | DMS-114 > 100 µM | DMS-273 > 100 µM | DU-145 > 1000 µM | EKVX > 100 µM | HCC 2998 > 100 µM | HCT-116 > 100 µM | HL-60 > 100 µM | HOP-18 > 100 µM | HOP-62 > 100 µM | HOP-92 > 100 µM | HT-29 > 100 µM | Hs-578T > 1000 µM | IGROV-1 > 100 µM | K562 > 100 µM | KM-20L2 > 100 µM | KM12 > 100 µM | LOX IMVI > 100 µM | M14 > 1000 µM | M19-MEL > 100 µM | MCF7 > 100 µM | MDA-MB-231 > 1000 µM | MDA-MB-435 > 1000 µM | MDA-N > 1000 µM | MOLT-4 > 100 µM | Malme-3M > 100 µM | NCI-H226 > 100 µM | NCI-H23 > 100 µM | NCI-H460 > 100 µM | NCI-H522 > 100 µM | NCI/ADR-RES > 100 µM | OVCAR-3 > 100 µM | OVCAR-4 > 100 µM | OVCAR-5 > 100 µM | OVCAR-8 > 100 µM | PC-3 > 1000 µM | RPMI-8226 > 100 µM | RXF 393 > 100 µM | SK-MEL-28 > 100 µM | SK-MEL-2 > 100 µM | SK-MEL-5 > 100 µM | SK-OV-3 > 100 µM | SN12C > 100 µM | SR > 1000 µM | SW-620 > 100 µM | T47D > 1000 µM | TK-10 > 1000 µM | UACC-257 > 87.9 µM | UACC-62 > 100 µM | UO-31 502 µM

CC(=O)c1sc2c(c1OC(=O)c1ccccc1)c(=O)n(-c1ccccc1)c(=S)n2-c1ccccc1
18 µM: HCT-15
inactive: 786-0 2.9 µM | A498 2.49 µM | A549 35.3 µM | ACHN 3.03 µM | BT-549 > 10 µM | CAKI-1 8.43 µM | CCRF-CEM 2.51 µM | COLO 205 13.6 µM | DU-145 28.1 µM | EKVX 15.9 µM | HCC 2998 17.3 µM | HCT-116 13.4 µM | HL-60 34 µM | HOP-62 15 µM | HOP-92 1.69 µM | HT-29 2.93 µM | Hs-578T 3.74 µM | IGROV-1 23.3 µM | K562 17.4 µM | KM12 33.1 µM | LOX IMVI 2.26 µM | M14 3.4 µM | MCF7 35.7 µM | MDA-MB-231 7.93 µM | MDA-MB-435 4.24 µM | MDA-N 6.4 µM | MOLT-4 2.26 µM | Malme-3M 2.46 µM | NCI-H226 2.62 µM | NCI-H23 27.3 µM | NCI-H460 11.2 µM | NCI-H522 28.6 µM | NCI/ADR-RES 4.65 µM | OVCAR-3 17.9 µM | OVCAR-4 20.4 µM | OVCAR-5 3.82 µM | OVCAR-8 4.38 µM | PC-3 2.9 µM | RPMI-8226 3.12 µM | RXF 393 2.86 µM | SF-268 4.97 µM | SF-295 2.48 µM | SF-539 2.32 µM | SK-MEL-28 3.89 µM | SK-MEL-2 2.79 µM | SK-MEL-5 5.62 µM | SK-OV-3 4.14 µM | SN12C 5.78 µM | SNB-19 4.84 µM | SNB-75 2.26 µM | SR 3.95 µM | SW-620 15.2 µM | T47D 9.23 µM | TK-10 24 µM | U-251 3.94 µM | UACC-257 4.38 µM | UACC-62 13.4 µM | UO-31 4.09 µM

C/C(=N\NC(=O)c1cccnc1)c1cccc(/C(C)=N/NC(=O)c2cccnc2)n1.CC(=O)[O-].CC(=O)[O-].[Zn+2]
inactive: 786-0 4.43 µM | A549 3.91 µM | ACHN 1.52 µM | CAKI-1 2.64 µM | DLD-1 1.68 µM | EKVX 2.86 µM | HOP-62 1.45 µM | KM-20L2 1.67 µM | KM12 3.3 µM | LOX IMVI 1.62 µM | M14 4.46 µM | M19-MEL 8.45 µM | NCI-H226 2.31 µM | NCI-H23 4.01 µM | NCI-H460 4.31 µM | OVCAR-5 4.13 µM | OVCAR-8 1.62 µM | RPMI-8226 6.21 µM | RXF 393 3.01 µM | SF-295 2.74 µM | SF-539 1.57 µM | SK-OV-3 2.22 µM | SN12C 4.9 µM | SNB-19 2.86 µM | SW-620 3.54 µM | TK-10 5.65 µM | UACC-257 5.41 µM | UACC-62 2.25 µM | UO-31 2.72 µM
2.26 µM: HCT-15
active: OVCAR-4 0.504 µM | SF-268 0.668 µM | U-251 1.03 µM

CNC(=S)N/N=C1\CC(c2ccccc2)Oc2ccccc21 (stereo not given)
inactive: 786-0 > 100 µM | A549 > 100 µM | ACHN > 100 µM | CAKI-1 > 100 µM | CCRF-CEM > 100 µM | COLO 205 > 100 µM | DLD-1 > 100 µM | DMS-273 > 100 µM | EKVX > 100 µM | HCC 2998 > 100 µM | HCT-116 > 100 µM | HOP-92 18.3 µM | HT-29 > 100 µM | IGROV-1 > 100 µM | K562 > 100 µM | KM12 > 100 µM | LOX IMVI > 100 µM | LXFL 529 > 100 µM | M14 > 100 µM | M19-MEL 91.8 µM | MOLT-4 > 100 µM | Malme-3M > 100 µM | NCI-H226 43.7 µM | NCI-H23 > 100 µM | NCI-H460 > 100 µM | NCI-H522 > 100 µM | OVCAR-3 34.8 µM | OVCAR-4 18.6 µM | OVCAR-5 > 100 µM | OVCAR-8 > 100 µM | RXF 393 > 100 µM | SF-268 > 100 µM | SF-295 > 100 µM | SF-539 > 100 µM | SK-MEL-28 > 100 µM | SK-MEL-2 > 100 µM | SK-MEL-5 88.5 µM | SK-OV-3 > 100 µM | SN12C > 100 µM | SNB-19 > 100 µM | SNB-75 > 100 µM | SNB-78 > 100 µM | SR > 100 µM | SW-620 > 100 µM | TK-10 > 100 µM | U-251 > 100 µM | UACC-62 > 100 µM | UO-31 8.11 µM
